Test results from ChEMBL document CHEMBL5241120, “Insights into the medicinal chemistry of heterocycles integrated with a pyrazolo[1,5-a]pyrimidine scaffold” (RSC Med Chem, 2022).
Converted amounts (≈) assume the structure as drawn.

Legend:
Klebsiella pneumoniae [1] = experiment: Antibacterial activity against Klebsiella pneumoniae strain 13 assessed as bacterial inhibition at 0.5 mg/ml after 3 hrs; assay type: functional; parameters: scale not given: the % may be the effect or the level left
Mus musculus [2] = experiment: Anxiolytic activity in mouse assessed as time spent in light at 100 mg/kg, po; assay type: functional
Mus musculus [3] = experiment: Anxiolytic activity in mouse assessed as transfer number at 100 mg/kg, po; assay type: functional
Aspergillus clavatus = experiment: Antifungal activity against Aspergillus clavatus assessed as zone of inhibition; assay type: functional
Escherichia coli [4] = experiment: Antibacterial activity against Escherichia coli assessed as zone of inhibition; assay type: functional
Bacillus subtilis [5] = experiment: Antibacterial activity against Bacillus subtilis assessed as zone of inhibition; assay type: functional
Candida tropicalis = experiment: Antifungal activity against Candida tropicalis assessed as zone of inhibition; assay type: functional
[6] = target: Cyclin-dependent kinase 1 (Homo sapiens, UniProt P06493); experiment: Inhibition of CDK1 (unknown origin)
Chain of Cyclin-dependent kinase 1 (P06493 whole entry): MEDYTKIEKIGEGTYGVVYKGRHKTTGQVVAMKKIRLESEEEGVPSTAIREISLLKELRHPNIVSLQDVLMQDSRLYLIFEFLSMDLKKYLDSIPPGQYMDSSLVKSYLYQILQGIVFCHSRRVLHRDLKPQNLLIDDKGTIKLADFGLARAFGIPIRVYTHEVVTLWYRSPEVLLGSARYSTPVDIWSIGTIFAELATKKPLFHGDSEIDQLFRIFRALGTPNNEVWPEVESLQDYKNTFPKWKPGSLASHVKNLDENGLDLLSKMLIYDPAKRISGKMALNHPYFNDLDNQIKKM

HCT-116 = experiment: Cytotoxicity against human HCT-116 cells by MTT assay; assay type: functional, cell-based
[7] = Cytotoxicity against human WI-38 cells by MTT assay; assay type: toxicity, cell-based
[8] = test system: Panel NCI-60 (60 carcinoma cell lines); experiment: Cytotoxicity against human Panel NCI-60 (60 carcinoma cell lines); assay type: functional; parameters: concentration or dose not given beside the values
Aspergillus fumigatus [9] = experiment: Antifungal activity against Aspergillus fumigatus; assay type: functional
[10] = target: Gamma-aminobutyric acid receptor subunit alpha-1 (Homo sapiens, UniProt P14867); experiment: Binding affinity to GABAA alpha1 (unknown origin)
Chain of Gamma-aminobutyric acid receptor subunit alpha-1 (P14867 whole entry): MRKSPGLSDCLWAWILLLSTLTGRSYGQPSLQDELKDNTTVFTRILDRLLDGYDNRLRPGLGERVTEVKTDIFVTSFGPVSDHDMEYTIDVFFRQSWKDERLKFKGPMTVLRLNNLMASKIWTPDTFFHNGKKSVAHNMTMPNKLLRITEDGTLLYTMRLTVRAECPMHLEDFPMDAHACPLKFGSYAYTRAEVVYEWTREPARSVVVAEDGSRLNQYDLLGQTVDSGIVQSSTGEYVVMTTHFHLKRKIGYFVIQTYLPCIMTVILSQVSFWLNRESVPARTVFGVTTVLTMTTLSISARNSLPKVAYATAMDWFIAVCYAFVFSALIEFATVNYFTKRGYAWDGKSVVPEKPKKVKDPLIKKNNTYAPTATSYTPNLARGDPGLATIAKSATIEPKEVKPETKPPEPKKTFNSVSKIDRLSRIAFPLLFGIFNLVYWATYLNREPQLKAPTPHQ

Mus musculus [11] = experiment: Anxiolytic activity in mouse assessed as time spent in light at 30 mg/kg, po; assay type: functional
Mus musculus [12] = experiment: Anxiolytic activity in mouse assessed as time spent in light at 3 mg/kg, po; assay type: functional
Mus musculus [13] = experiment: Anxiolytic activity in mouse assessed as time spent in light at 10 mg/kg, po; assay type: functional
Mus musculus [14] = experiment: Anxiolytic activity in mouse assessed as transfer number at 3 mg/kg, po; assay type: functional
Mus musculus [15] = experiment: Anxiolytic activity in mouse assessed as transfer number at 10 mg/kg, po; assay type: functional
Mus musculus [16] = experiment: Anxiolytic activity in mouse assessed as time spent in light at 1 mg/kg, po; assay type: functional
Mus musculus [17] = experiment: Anxiolytic activity in mouse assessed as transfer number at 30 mg/kg, po; assay type: functional
Mus musculus [18] = experiment: Anxiolytic activity in mouse assessed as transfer number at 1 mg/kg, po; assay type: functional
Fusarium oxysporum = experiment: Antifungal activity against Fusarium oxysporum; assay type: functional
Pseudomonas aeruginosa [19] = experiment: Antibacterial activity against Pseudomonas aeruginosa; assay type: functional
Penicillium chrysogenum = experiment: Antifungal activity against Penicillium chrysogenum; assay type: functional
Staphylococcus aureus [20] = experiment: Antibacterial activity against Staphylococcus aureus; assay type: functional
Staphylococcus aureus [21] = experiment: Antibacterial activity against Staphylococcus aureus assessed as zone of inhibition; assay type: functional
Escherichia coli [22] = experiment: Antibacterial activity against Escherichia coli; assay type: functional
Bacillus subtilis [23] = experiment: Antibacterial activity against Bacillus subtilis; assay type: functional
Pseudomonas aeruginosa [24] = experiment: Antibacterial activity against Pseudomonas aeruginosa assessed as zone of inhibition; assay type: functional
Salmonella typhimurium = experiment: Antibacterial activity against Salmonella typhimurium assessed as zone of inhibition; assay type: functional, Salmonella enterica subsp. enterica serovar Typhimurium
Klebsiella pneumoniae [25] = experiment: Antibacterial activity against Klebsiella pneumoniae assessed as zone of inhibition; assay type: functional
Geotrichum candidum = experiment: Antifungal activity against Geotrichum candidum assessed as zone of inhibition; assay type: functional
[26] = test system: Staphylococcus epidermidis; experiment: Antibacterial activity against Staphylococcus epidermidis assessed as zone of inhibition; assay type: functional
Staphylococcus aureus [27] = experiment: Antibacterial activity against Staphylococcus aureus assessed as zone of inhibition at 5 mg/ml; assay type: functional; conditions: read-out: IZ
Aspergillus fumigatus [28] = experiment: Antifungal activity against Aspergillus fumigatus assessed as zone of inhibition at 5 mg/ml; assay type: functional; conditions: read-out: IZ
Aspergillus flavus = experiment: Antifungal activity against Aspergillus flavus assessed as zone of inhibition at 5 mg/ml; assay type: functional; conditions: read-out: IZ
Enterococcus faecalis = experiment: Antibacterial activity against Enterococcus faecalis assessed as zone of inhibition at 5 mg/ml; assay type: functional; conditions: read-out: IZ
Proteus vulgaris = experiment: Antibacterial activity against Proteus vulgaris assessed as zone of inhibition at 5 mg/ml; assay type: functional; conditions: read-out: IZ
Bacillus subtilis [29] = experiment: Antibacterial activity against Bacillus subtilis assessed as zone of inhibition at 5 mg/ml; assay type: functional; conditions: read-out: IZ
Escherichia coli [30] = experiment: Antibacterial activity against Escherichia coli assessed as zone of inhibition at 5 mg/ml; assay type: functional; conditions: read-out: IZ
Candida albicans = experiment: Antifungal activity against Candida albicans assessed as zone of inhibition at 5 mg/ml; assay type: functional; conditions: read-out: IZ
MCF7 = experiment: Cytotoxicity against human MCF7 cells by MTT assay; assay type: functional, cell-based
HepG2 = experiment: Cytotoxicity against human HepG2 cells by MTT assay; assay type: functional, cell-based
Streptococcus mutans = experiment: Antibacterial activity against Streptococcus mutans assessed as zone of inhibition at 5 mg/ml; assay type: functional; conditions: read-out: IZ
A549 = experiment: Cytotoxicity against human A549 cells by MTT assay; assay type: functional, cell-based
COLO 205 = experiment: Cytotoxicity against human COLO 205 cells by MTT assay; assay type: functional, cell-based
SiHa = experiment: Cytotoxicity against human SiHa cells by MTT assay; assay type: functional, cell-based
[31] = test system: Brassica rapa subsp. oleifera; experiment: Antifungal activity against Brassica campestris assessed as inhibition of fungal growth at 100 ug/ml by cup plate diffusion method; assay type: functional; parameters: scale not given: the % may be the effect or the level left; conditions: dose 100 µg/ml
Phomopsis asparagi = experiment: Antifungal activity against Phoma asparagi assessed as inhibition of fungal growth at 50 ug/ml; assay type: functional; parameters: scale not given: the % may be the effect or the level left; conditions: dose 50 µg/ml
Fusarium graminearum = experiment: Antifungal activity against Gibberrella-zeave assessed as inhibition of fungal growth at 50 ug/ml; assay type: functional; parameters: scale not given: the % may be the effect or the level left; conditions: dose 50 µg/ml
Mycosphaerella arachidis = experiment: Antifungal activity against Cercospora arachidicola assessed as inhibition of fungal growth at 50 ug/ml; assay type: functional; parameters: scale not given: the % may be the effect or the level left; conditions: dose 50 µg/ml
[32] = test system: Brassica rapa subsp. oleifera; experiment: Antifungal activity against Brassica campestris assessed as inhibition of fungal growth at 10 ug/ml by cup plate diffusion method; assay type: functional; parameters: scale not given: the % may be the effect or the level left; conditions: dose 10 µg/ml
Alternaria solani = experiment: Antifungal activity against Alternaria solani assessed as inhibition of fungal growth at 50 ug/ml; assay type: functional; parameters: scale not given: the % may be the effect or the level left; conditions: dose 50 µg/ml

Structure (SMILES): CCSc1nn2c3c(c(C)nc2c1C#N)Nc1ccccc1C(=O)N3C1CCCCC1
- Activity (Klebsiella pneumoniae [1]): 100%

Structure (SMILES): CCOC(=O)c1ncn2c1CN(C)C(=O)c1cc(F)ccc1-2 [FLUMAZENIL]
- Activity (Mus musculus [2]): 120.08%
- Activity (Mus musculus [3]): 12.8

Structure (SMILES): Cc1nc2c(c(C)nc3c(C#N)cnn32)c2c1CCO2
- inhibition zone (IZ) (Aspergillus clavatus): 17.7 mm
- inhibition zone (IZ) (Escherichia coli [4]): 16.4 mm
- inhibition zone (IZ) (Bacillus subtilis [5]): 14.1 mm

Structure (SMILES): Cc1cc(NN2C(=O)c3ccccc3C2=O)n2ncc(C#N)c2n1
- inhibition zone (IZ) (Candida tropicalis): 17.4 mm

Structure (SMILES): COc1ccc(Nc2nn3c(-c4ccccc4)cc(-c4ccccc4)nc3c2C(N)=O)c(OC)c1
- IC50 [6]: 161 nM
- IC50 (HCT-116): 6280 nM
- IC50 [7]: 17700 nM
- Activity [8]: 48.5%

Structure (SMILES): COc1ccc(Nc2nn3c(N)c(C#N)c(-c4ccccc4)nc3c2C(N)=O)cc1
- MIC (Aspergillus fumigatus [9]): 15.6 µg/mL (≈ 39.1 µM)

Structure (SMILES): O=c1c(Cc2ccccc2)c[nH]c2c(-c3ccccn3)cnn12
- Ki [10]: 183 nM
- Activity (Mus musculus [11]): 164.4%
- Activity (Mus musculus [12]): 145.2%
- Activity (Mus musculus [13]): 165.4%
- Activity (Mus musculus [14]): 21.3
- Activity (Mus musculus [15]): 23.9
- Activity (Mus musculus [16]): 113.9%
- Activity (Mus musculus [17]): 28.9
- Activity (Mus musculus [18]): 15

Structure (SMILES): COc1ccc(Nc2nn3c(-c4ccccc4)cc(-c4ccccc4)nc3c2C(N)=O)cc1
- MIC (Fusarium oxysporum): 7.81 µg/mL (≈ 17.9 µM)
- MIC (Pseudomonas aeruginosa [19]): 15.6 µg/mL (≈ 35.9 µM)
- MIC (Penicillium chrysogenum): 15.6 µg/mL (≈ 35.9 µM)
- MIC (Staphylococcus aureus [20]): 7.81 µg/mL (≈ 17.9 µM)
- inhibition zone (IZ) (Staphylococcus aureus [21]): 9 mm
- inhibition zone (IZ) (Escherichia coli [4]): 13 mm
- MIC (Escherichia coli [22]): 3.9 µg/mL (≈ 8.96 µM)
- MIC (Bacillus subtilis [23]): 3.9 µg/mL (≈ 8.96 µM)
- inhibition zone (IZ) (Pseudomonas aeruginosa [24]): 10 mm
- inhibition zone (IZ) (Bacillus subtilis [5]): 12 mm

Structure (SMILES): Nc1nn2c(-c3ccc(S(=O)(=O)c4ccccc4)cc3)ccnc2c1/N=N/c1ccccc1Cl
- inhibition zone (IZ) (Salmonella typhimurium): 26.2 mm
- inhibition zone (IZ) (Klebsiella pneumoniae [25]): 26.6 mm
- inhibition zone (IZ) (Geotrichum candidum): 25.2 mm
- inhibition zone (IZ) [26]: 22.6 mm
- inhibition zone (IZ) (Escherichia coli [4]): 25.7 mm

Structure (SMILES): Cc1cc(C)nc(NS(=O)(=O)c2ccc(/N=N/c3c(N)nc4c(/N=N/c5ccc(C(F)(F)F)cc5)c(N)nn4c3N)cc2)n1
- zone of inhibition at 5000 µg/mL (Staphylococcus aureus [27]): 13 mm
- zone of inhibition at 5000 µg/mL (Aspergillus fumigatus [28]): 13 mm
- zone of inhibition at 5000 µg/mL (Aspergillus flavus): 13 mm
- zone of inhibition at 5000 µg/mL (Enterococcus faecalis): 25 mm
- zone of inhibition at 5000 µg/mL (Proteus vulgaris): 40 mm
- IC50 (HCT-116): 2.7 µg/mL
- zone of inhibition at 5000 µg/mL (Bacillus subtilis [29]): 13 mm
- zone of inhibition at 5000 µg/mL (Escherichia coli [30]): 13 mm
- zone of inhibition at 5000 µg/mL (Candida albicans): 13 mm
- IC50 (MCF7): 4.5 µg/mL
- IC50 (HepG2): 3.9 µg/mL (≈ 6.23 µM)
- zone of inhibition at 5000 µg/mL (Streptococcus mutans): 13 mm

Structure (SMILES): COc1ccc(-c2cc(-c3nn4cc(-c5ccncc5)cnc4c3S(=O)(=O)c3cc(OC)c(OC)c(OC)c3)on2)cc1
- IC50 (A549): 10 nM
- IC50 (COLO 205): 100 nM
- IC50 (MCF7): 10 nM
- IC50 (SiHa): 180 nM

Structure (SMILES): Cc1ccn2ncc(C#N)c2n1
- Activity [31]: 65.8%
- Activity (Phomopsis asparagi): 28.7%
- Activity (Fusarium graminearum): 36.4%
- Activity (Mycosphaerella arachidis): 39.6%
- Activity [32]: 40.3%
- Activity (Alternaria solani): 45.1%
